Values quoted from earlier work as cited in patent US12016850B2, “Modified release pharmaceutical formulations comprising deferiprone” (Chiesi Farmaceutici S.p.A., priority 2022, dated 2024).

Conditions: background statement, species not given

half-life: 2 to 3 h
SMILES: Cc1c(O)c(=O)ccn1C [Deferiprone, 3-hydroxy-1,2-dimethylpyridin-4-one]
